{"source": "patent US12569515B2", "about": "“Gold-containing agents for the treatment of lung infections” (Aurovir Pharma GmbH, priority 2020, dated 2026)", "key": {"[1]": {"target": "SARS-CoV-2 spike protein / ACE2 receptor interaction (Severe acute respiratory syndrome coronavirus 2, UniProt P0DTC2)", "assay": "Inhibition of the spike/ACE2 interaction by ELISA", "format": "binding"}, "CaLu-3 cells": {"tested_on": "CaLu-3 cells", "assay": "Cytotoxicity in CaLu-3 cells (crystal violet, 24 hours)", "format": "cell-based", "conditions": "for Cytotoxicity in CaLu-3 cells: concentrations of up to 100 μM, combinations with respect to AM or AG", "experimental": "In order to determine the cytotoxicity, CaLu-3 cells were cultured in 96-well microtitre plates. The cell culture medium was replaced with fresh medium which contained the gold compounds in concentrations of 25, 50 or 100 μM and incubated for 24 hours at 37° C./5% CO2. Next, the remaining cells were photometrically determined using crystal violet stain (Victor X4 microplate reader). The quantity of cells in the treated samples was calculated as a percentage with respect to an untreated control."}, "SARS-CoV-2 PLpro [2]": {"target": "T1, SARS-CoV-2 PLpro (Severe acute respiratory syndrome coronavirus 2, UniProt P0DTD1)", "T1 construct": "SARS-CoV-2 protease Papain-Like Protease (PLpro)", "assay": "Removal of zinc from PLpro (FluoZin-3 fluorescence)", "format": "biochemical", "conditions": "50 μM test compound, 500 nM PLpro, up to 90 minutes (FIG. 10)", "experimental": "In addition to a cysteine in the catalytic centre of the enzyme, the protease Plpro contains further cysteines in a zinc binding domain which stabilise the structure and function of the enzyme. The removal of the bound zinc constitutes an interesting mechanism for the action of inhibitors for PLpro.\nIn order to establish whether the inhibitors are Zn-removing agents, the presence of the Zn^2+ cation in solution was determined as follows. The inhibitor compounds were prepared as stock solutions in DMSO, as stock solutions in water or DMSO and diluted one hundred-fold with HEPES buffer ([…], pH 7.5) to 100 μM concentrations. Volumes of 50 μL of SARSCoV-2 PLpro (Elabscience) in HEPES buffer or blank HEPES buffer (control for false positive results) were placed in the wells of a black 96-well microtitre plate (Nunclon, Nunc). Volumes of 50 μL of the inhibitor solutions or 1% DMSO in HEPES buffer (control) were added. […] The resulting solutions were mixed and the fluorescence emission was determined after 10 min, every 10 min over a period of 90 minutes, at 37° C. (λexc=485 nm, λem=535 nm); Victor X4 microtitre plate reader). The relative fluorescence was calculated by dividing the absolute fluorescence emission of the well which contained the inhibitor by the absolute fluorescence of the corresponding well which contained the enzyme but no inhibitor (control). […]"}, "SARS-CoV-2 PLpro [3]": {"target": "T1, SARS-CoV-2 PLpro", "assay": "Inhibition of SARS-CoV-2 protease PLpro (fluorogenic substrate Z-Arg-Leu-Arg-Gly-Gly-AMC)", "format": "biochemical", "conditions": "1 h preincubation at 37° C.; for the mixture with respect to the quantity of aurothioglucose"}, "[4]": {"target": "SARS-CoV-2 3CL protease (Mpro) (Severe acute respiratory syndrome coronavirus 2, UniProt P0DTD1)", "assay": "Inhibition of SARS-CoV-2 protease 3CLpro", "format": "biochemical", "conditions": "1 h preincubation at 37° C.", "protocol": "50 μL of the test substance solutions or pure HEPES buffer (positive control) was respectively added thereto and the resulting solutions were mixed and incubated for one hour at 37° C."}, "[5]": {"tested_on": "bovine coronavirus (BCoV)", "format": "cell-based"}, "[6]": {"tested_on": "mouse model for acute allergic asthma", "assay": "Anti-inflammatory action in a mouse model for acute allergic asthma, intranasal application"}}, "note": "pIC50: −log10 of the molar value.", "data": [{"compound": "CC(=O)N[C@@H](CS)C(=O)O", "note": "[N-acetylcysteine]", "values": [{"measurement": "remaining activity at 100 µM", "setting": "[1]; 100 μM, N-acetylcysteine alone, read-out: Spike/ACE2 interaction remaining, % of control", "value": 97, "unit": "%"}]}, {"compound": "CC(=O)OC[C@H]1O[C@@H]([S-])[C@H](OC(C)=O)[C@@H](OC(C)=O)[C@@H]1OC(C)=O.CCP(CC)CC.[Au+]", "note": "[auranofin]", "values": [{"measurement": "Quantity of cells, % of the untreated control", "setting": "CaLu-3 cells; 25 μM, CaLu-3 cells", "value": "< 20 % of the untreated control"}]}, {"compound": "OC[C@H]1O[C@H]([S-])[C@H](O)[C@@H](O)[C@@H]1O.[Au+]", "note": "[aurothioglucose]", "values": [{"measurement": "Removal of zinc from PLpro", "setting": "SARS-CoV-2 PLpro [2]", "value": "comparable with the reference compound disulfiram"}, {"measurement": "pIC50", "setting": "SARS-CoV-2 PLpro [3]", "value": 5.15}, {"measurement": "Affinity for the spike protein of SARS-CoV-2 virus", "setting": "[1]", "value": "high affinity"}, {"measurement": "Inhibition of the spike/ACE2 interaction", "setting": "[1]; 20 μM aurothioglucose (FIG. 8)", "value": "resulted in an inhibition"}, {"measurement": "Cytotoxicity in CaLu-3 cells", "setting": "CaLu-3 cells", "value": "no relevant cytotoxicity"}, {"measurement": "pIC50", "setting": "[4]", "value": 5.08}, {"measurement": "Reduction in the viral load", "setting": "[5]; 256 μM aurothioglucose, preincubated 1 h with 100 TCID50 BCoV, MDBK cells, 12-48 hours", "value": 10, "unit": "fold"}]}, {"compound": "O=C(O)CC([S-])C(=O)O.[Au+]", "note": "(centres unmarked) [aurothiomalate]", "values": [{"measurement": "pIC50", "setting": "SARS-CoV-2 PLpro [3]", "value": 6.22}, {"measurement": "Cytotoxicity in CaLu-3 cells", "setting": "CaLu-3 cells", "value": "no relevant cytotoxicity"}, {"measurement": "pIC50", "setting": "[4]", "value": 4.64}]}, {"compound": "NC(=O)c1nc(F)c[nH]c1=O", "note": "[favipiravir]", "values": [{"measurement": "Viral load formed on adding favipiravir", "setting": "[5]", "value": "reduction in the viral load"}]}, {"compound": "auroacetylcysteine", "values": [{"measurement": "Total inflammatory cells in bronchial secretions, extent of respiratory tract inflammation, eosinophils and neutrophiles, inflammatory infiltrates in lung parenchyma", "setting": "[6]; 10 mg/kg over 5 days", "value": "reduced"}, {"measurement": "Inflammatory parameters peribronchially and in the parenchyma", "setting": "[6]; 10 mg/kg, histology", "value": "reduced"}, {"measurement": "Deaths in treatment group", "setting": "[6]; AAC group, 5 mice", "value": "one death"}, {"measurement": "Eosinophilic and neutrophilic granulocytes and lymphocytes", "setting": "[6]; cell populations (FIG. 5)", "value": "reduced"}, {"measurement": "Macrophages", "setting": "[6]; cell populations (FIG. 5)", "value": "increased compared with dexamethasone"}, {"measurement": "Total cell count in bronchoalveolar lavage", "setting": "[6]; intranasal, compared with placebo and dexamethasone 1 mg/kg (FIG. 2)", "value": "comparable with dexamethasone"}, {"measurement": "Anti-inflammatory effect in the tissue", "setting": "[6]; versus dexamethasone 1 mg/kg", "value": "comparable with that of dexamethasone"}]}]}
